Results as given in patent publication US4163051A, “Streptomycetal antibiotic” (Beecham Group Limited, priority 1975, dated 1979).
Counter-ions that a name gives are not always drawn. One block for each compound: values may come before it.

Columns and labels:
Klebsiella aerogenes A [1] = experiment: activity in combination with ampicillin and cephaloridine (synergy, MIC); type: cell-based
Method: (§1) The antibacterial activity of the material produced as above was determined by the microtitre method using the overnight inoculum of the test organism at 0.2% concentration. The synergistic activity of the di-sodium salt of MM 17880 in combination with ampicillin and with cephaloridine against Klebsiella aerogenes and Staphylococcus aureus Russell are shown in Table 3.

[2] = tested on: Staphylococcus aureus Russell; experiment: as above; type: cell-based
Method: as §1

Bacillus subtilis = experiment: antibacterial activity (MIC), microtitre method, heavy inoculum; type: cell-based; settings: overnight inoculum at 0.2%
Method: as §1
(§2) Microtitre - heavy inoculum

[3] = tested on: Citrobacter freundii Mantio; experiment: as above; type: cell-based; settings: overnight inoculum at 0.2%
Method: as §1, §2

E. coli 10418 = experiment: as above; type: cell-based; settings: overnight inoculum at 0.2%
Method: as §1, §2

E. coli JT4 = experiment: as above; type: cell-based; settings: overnight inoculum at 0.2%
Method: as §1, §2

Klebsiella aerogenes A [4] = experiment: as above; type: cell-based; settings: overnight inoculum at 0.2%
Method: as §1, §2

[5] = tested on: Klebsiella aerogenes Ba95; experiment: as above; type: cell-based; settings: overnight inoculum at 0.2%
Method: as §1, §2

Proteus mirabilis 13 = experiment: as above; type: cell-based; settings: overnight inoculum at 0.2%
Method: as §1, §2

Proteus morganii 1580 = experiment: as above; type: cell-based; settings: overnight inoculum at 0.2%
Method: as §1, §2

Proteus retigeri VM16 = experiment: as above; type: cell-based; settings: overnight inoculum at 0.2%
Method: as §1, §2

Proteus vulgaris W090 = experiment: as above; type: cell-based; settings: overnight inoculum at 0.2%
Method: as §1, §2

Pseudomonas aeruginosa A = experiment: as above; type: cell-based; settings: overnight inoculum at 0.2%
Method: as §1, §2

[6] = tested on: Salmonella typhimurium CT10; experiment: as above; type: cell-based; settings: overnight inoculum at 0.2%
Method: as §1, §2

Serratia marcescens US1 = experiment: as above; type: cell-based; settings: overnight inoculum at 0.2%
Method: as §1, §2

[7] = tested on: Staphylococcus aureus Oxford; experiment: as above; type: cell-based; settings: overnight inoculum at 0.2%
Method: as §1, §2

[8] = tested on: Staphylococcus aureus Russell; experiment: as above; type: cell-based; settings: overnight inoculum at 0.2%
Method: as §1, §2

Streptococcus faccalis I = experiment: as above; type: cell-based; settings: overnight inoculum at 0.2%
Method: as §1, §2

[9] = tested on: Streptococcus pyrogenes CN10; experiment: as above; type: cell-based; settings: overnight inoculum at 0.2%
Method: as §1, §2

[10] = stability of salts and unsalted acid; type: physicochemical; settings: salts vs unsalted acid; in solution
Klebsiella aerogenes = experiment: hole in plate method on agar seeded with Klebsiella aerogenes (arbitrary units); type: cell-based; settings: final solid of Example 1, sodium salt
Method: 300 ml. of 10% Pluronic L81 in soya-bean oil was added to prevent foaming. The fermentation was harvested after 48 hours and clarified by centrifugation. The clarified brew was arbitarily assigned an activity of 340 units/ml when assayed by the conventional hole in plate method on agar seeded with Klebsiella aerogenes.

[11] = biological target: T1, β-lactamase from E. coli JT4 (Escherichia coli, UniProt P62593); experiment: β-lactamase inhibition by the method of Belgian Pat. No. 827331; type: biochemical; settings: read-out: I50 (converted)
T1 construct: β-lactamase from E. coli JT4; endogenous in cells; host or cells: E. coli JT4
T1 sequence (P62593 24-286 limits assumed): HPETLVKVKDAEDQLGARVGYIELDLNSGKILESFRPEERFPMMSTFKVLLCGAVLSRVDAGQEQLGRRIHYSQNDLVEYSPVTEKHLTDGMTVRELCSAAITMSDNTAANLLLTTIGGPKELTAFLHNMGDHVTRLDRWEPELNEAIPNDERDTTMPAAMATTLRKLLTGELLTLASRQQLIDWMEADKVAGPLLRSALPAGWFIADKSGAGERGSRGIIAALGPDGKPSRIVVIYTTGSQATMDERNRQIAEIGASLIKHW

[12] = tested on: certain gram-positive and gram-negative organisms; experiment: antibacterial activity, microtitre method (general statement); type: cell-based; settings: substantially pure
From the text: It is likely that MM 17880 has a molecular weight between 300 and 500. […] Thus MM 17880 has the molecular formula C11-14 […]-23 O8-11 N2 S2.

[13] = tested on: certain β-lactamase producing strains of Staphylococcus aureus and Klebsiella aerogenes; experiment: synergy with β-lactam antibiotics (general statement); type: cell-based; settings: substantially pure; with ampicillin, amoxycillin and the like

MIC (Klebsiella aerogenes A [1]): 250 µg/mL | MIC [2]: 500 µg/mL
SMILES: CC1(C)S[C@@H]2[C@H](NC(=O)[C@H](N)c3ccccc3)C(=O)N2[C@H]1C(=O)O [Ampicillin, ampicillin]

SMILES: O=C(Cc1cccs1)N[C@@H]1C(=O)N2C(C(=O)[O-])=C(C[n+]3ccccc3)CS[C@H]12 [Cephaloridine, cephaloridine]
MIC (Klebsiella aerogenes A [1]; compound alone): 5.0 µg/mL | MIC ([2]; compound alone): 1.25 µg/mL

SMILES: CC(=O)NCCSC1=C(C(=O)O)N2C(=O)C(C(C)OS(=O)(=O)O)C2C1 (stereo not shown) [MM 17880]
MIC (Bacillus subtilis): 0.2 µg/mL | MIC [3]: 3.1 µg/mL | MIC (E. coli 10418): 0.1 µg/mL | MIC (E. coli JT4): 3.1 µg/mL | MIC (Klebsiella aerogenes A [4]): 0.8 µg/mL | MIC [5]: 12.5 µg/mL | MIC (Proteus mirabilis 13): 1.6 µg/mL | MIC (Proteus morganii 1580): 1.6 µg/mL | MIC (Proteus retigeri VM16): 0.2 µg/mL | MIC (Proteus vulgaris W090): 0.2 µg/mL | MIC (Pseudomonas aeruginosa A): > 50 µg/mL | MIC [6]: 0.2 µg/mL | MIC (Serratia marcescens US1): 0.4 µg/mL | MIC [7]: 0.4 µg/mL | MIC [8]: 0.4 µg/mL | MIC (Streptococcus faccalis I): 6.2 µg/mL | MIC [9]: < 0.01 µg/mL | MIC (Klebsiella aerogenes A [1]): 0.2 µg/mL | MIC [2]: 3.1 µg/mL | stability [10]: tends to decompose in solution | activity (assayed, arbitrary units) (Klebsiella aerogenes): 16,000 units/mg

SMILES: CC(=O)NCCSC1=C(C(=O)O)N2C(=O)C(C(C)OS(=O)(=O)O)C2C1 (stereo not shown) [di-sodium salt of MM 17880]
IC50 [11]: 0.634 nM | level of antibacterial activity [12]: good level of antibacterial activity | synergy with β-lactam antibiotics [13]: able to synergyse the anti-bacterial activity of β-lactam antibiotics
